Structures can show the parent of a compound that is named as a salt. Where two headings read alike, the source gives them in different places.

Holding throughout (type): biochemical
Assay [1] concerns the target T1, S. aureus Topoisomerase IV (Staphylococcus aureus, UniProt P0C1S7+P0C1U9).
T1 construct: purchased Inspiralis, UK
Description: Topoisomerase IV decatenation assay (S. aureus). As to the method: (§1) The above compounds were tested for the inhibition of the enzyme DNA gyrase in a gyrase supercoiling assay and for the inhibition of the enzyme topoisomerase IV in a decatenation assay, in both Gram positive and Gram negative bacteria, according to the following methods.
(§2) Both the assays were carried out according to a set-up method modified from the article to Blanche F, et al. “Differential Behaviors of Staphylococcus aureus and Escherichia coli Type II DNA Topoisomerases”, Antimicrob. Agents Chemother., 1996, Vol. 40, No. 12 p. 2714-2720.
(§3) The compounds were screened at single concentration (200, 100 or 50 μM), in duplicate.
(§4) S. aureus and E. coli Topoisomerase IV decatenation kits (Inspiralis, UK) were used. A master mix with a total volume sufficient for the number of reactions to perform was prepared with the following reagents: 5× assay buffer (50 mM HEPES-KOH (pH 7.6), 100 mM potassium glutamate, 10 mM magnesium acetate, 10 mM DTT, 1 mM ATP, 50 μg/ml albumin), kDNA substrate (200 ng/reaction), RNase-DNase free water. Aliquots of this mix were dispensed in each tube, then 10× compound stock solutions or vehicle control (DMSO), were added in each reaction tube.
(§5) Reaction was started with Topoisomerase IV enzyme (0.5 U/reaction) addition.
(§6) A sample added with an equal volume of dilution buffer was used as negative control (without enzyme).
(§7) The reaction tubes were gentle vortexed and incubated 30 minutes at 37° C. Each reaction was stopped by adding 30 μl of Stop Buffer and 30 μl of chloroform/isoamyl alcohol (24/1), briefly vortexed for 5-10 seconds and centrifuged at 20000×g for 2 minutes. Samples taken from the upper phase were loaded into 1% agarose gel and subjected to electrophoresis for 1 hour at 80V constant voltage in TAE (40 mM Tris-acetate, 2 mM EDTA).
(§8) Data acquisition and analysis. Due to the high molecular mass, kDNA could not enter an agarose gel under normal electrophoresis conditions, but remained in the wells. In the presence of Topo IV topoisomerase mini-circles (2.5 Kb) were released from kDNA by decatenation and were quickly and easily resolved in the gel at relatively high voltages.
(§9) Bands were visualized by ethidium bromide staining (dil 1:20000) for 30 minutes followed by destaining in distilled water for 10 minutes.
(§10) For single concentration screening assay, in order to evaluate the compounds activity on the enzymes, the bands of decatenated DNAs in the gel were photographed by a digital imaging system ImageQuant LAS 4000 (GE Healthcare) according to manufacturer's instructions.
(§11) The fluorescent intensity of each band was analyzed by ImageQuant TL software and it was expressed as volume (volume of the uncalibrated quantity of material in the image feature after subtraction of the background intensity by using rolling ball method).
(§12) Each band intensity was compared, as percentage, to vehicle sample band intensity, which served as positive control, on the same gel.
(§13) Inhibitory activity was expressed as percent of inhibition versus the positive control.
(§14) The supercoiled or decatenated DNA bands obtained as described in Example 1 were analysed as follows.
(§15) Bands were analyzed by gel documentation equipment (Syngene, Cambridge, UK) and quantitated using Syngene Gene Tools software. Raw gel data (fluorescent band volumes) collected from Syngene, GeneTools gel analysis software were converted to a percentage of the 100% control (the fully supercoiled or decatenated DNA band). […] The IC50 data were calculated by using the global curve fit non-linear regression tool by selecting the Single, 2 Parameter fit function from the Exponential Decay equation category.

The next assay has as its target T2, E. coli DNA gyrase (Escherichia coli, UniProt P0AES4+P0AES6).
T2 construct: purchased Inspiralis, UK
Description: DNA gyrase supercoiling assay (E. coli). The conditions noted are these: for inhibition at 50 µM: conc. 50 μM. On the procedure:
as §1, §2, §3
(§16) Reagents from S. aureus and E. coli Gyrase Supercoiling Assay kits (Inspiralis, UK) were used. A master mix with a total volume sufficient for the number of reactions to perform was prepared with the following reagents: 5× assay buffer, relaxed pBR322 substrate (0.5 μg/reaction), RNase-DNase free water. Aliquotes of this mix were dispensed in each tube, then 10× compound stock solutions or vehicle control (DMSO), were added to each reaction tube.
(§17) Reaction was started with E. Coli (2 U/reaction) or S. aureus (1 U/reaction) gyrase enzyme addition.
as §6
(§18) The reaction tubes were gentle vortexed and incubated 30 minutes at 37° C. Each reaction was stopped by adding 30 μl of Stop Buffer and 30 μl chloroform/isoamyl alcohol (24/1), briefly vortexed for 5-10 seconds and centrifuged at 20000×g for 2 minutes. Samples were loaded onto 1% agarose gel and subjected to electrophoresis for 1 hour at 80V constant voltage in TAE (40 mM Tris-acetate, 2 mM EDTA).
(§19) Data acquisition and analysis. Treatment of relaxed pBR322 with DNA gyrase converted the relaxed topoisomers (DNAs of different linking number) to the supercoiled form of the plasmid, which migrates faster on an agarose gel. An upper band might also be visible, which consists of open-circular (nicked) DNA which is present in the relaxed substrate but co-migrates with some of the relaxed topoisomers.
(§20) Bands were visualized by ethidium bromide staining (dilution 1:20000) for 30 minutes followed by destaining in distilled water for 10 minutes.
(§21) In order to evaluate the compounds activity on the enzyme, the bands of supercoiled DNAs in the gel were photographed by a digital imaging system ImageQuant LAS 4000 (GE Healthcare) according to manufacturer's instructions.
as §11, §12, §13, §14, §15

The target of another assay is T3, E. coli Topoisomerase IV (Escherichia coli, UniProt P0AFI2+P20083).
T3 construct: purchased Inspiralis, UK
Description: Topoisomerase IV decatenation assay (E. coli). The conditions noted are these: for inhibition at 50 µM: conc. 50 μM. As to the method:
as §1, §2, §3, §4, §5, §6, §7, §8, §9, §10, §11, §12, §13, §14, §15

Another assay addresses T4, S. aureus DNA gyrase (Staphylococcus aureus, UniProt P0A0K8+P20831).
T4 construct: purchased Inspiralis, UK
Description: DNA gyrase supercoiling assay (S. aureus). The conditions noted are these: for inhibition at 50 µM: conc. 50 μM. As to the method: as §1, §2, §3, §16, §17, §6, §18, §19, §20, §21, §11, §12, §13, §14, §15

Where [2] appears, read: S. aureus, conc. 50 μM, n/a = not active, read-out: % inhibition Topo IV.
Setting [3] is: E. coli, n/a = not active, read-out: % inhibition Topo IV.
[4] abbreviates: S. aureus, concentration-response curve, eight half-log concentrations 0.1 to 300 μM, read-out: IC50 Topo IV.

T4 sequence (P0A0K8 whole entry): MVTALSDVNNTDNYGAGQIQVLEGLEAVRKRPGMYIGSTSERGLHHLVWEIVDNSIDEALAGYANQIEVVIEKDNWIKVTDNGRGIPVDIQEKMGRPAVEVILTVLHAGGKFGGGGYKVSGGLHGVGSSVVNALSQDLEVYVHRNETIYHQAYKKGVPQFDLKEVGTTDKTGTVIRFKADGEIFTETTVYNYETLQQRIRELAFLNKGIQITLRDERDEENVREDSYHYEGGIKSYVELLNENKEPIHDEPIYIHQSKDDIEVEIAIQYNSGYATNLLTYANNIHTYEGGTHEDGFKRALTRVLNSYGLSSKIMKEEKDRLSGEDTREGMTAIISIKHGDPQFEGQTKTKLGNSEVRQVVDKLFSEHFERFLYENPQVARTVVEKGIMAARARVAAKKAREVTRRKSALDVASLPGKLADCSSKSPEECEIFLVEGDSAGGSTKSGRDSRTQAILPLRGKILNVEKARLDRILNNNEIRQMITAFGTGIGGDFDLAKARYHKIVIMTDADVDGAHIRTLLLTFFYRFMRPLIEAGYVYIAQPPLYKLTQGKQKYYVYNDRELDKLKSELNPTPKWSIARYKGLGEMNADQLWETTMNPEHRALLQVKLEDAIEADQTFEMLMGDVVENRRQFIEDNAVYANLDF
T4 sequence (P20831 whole entry): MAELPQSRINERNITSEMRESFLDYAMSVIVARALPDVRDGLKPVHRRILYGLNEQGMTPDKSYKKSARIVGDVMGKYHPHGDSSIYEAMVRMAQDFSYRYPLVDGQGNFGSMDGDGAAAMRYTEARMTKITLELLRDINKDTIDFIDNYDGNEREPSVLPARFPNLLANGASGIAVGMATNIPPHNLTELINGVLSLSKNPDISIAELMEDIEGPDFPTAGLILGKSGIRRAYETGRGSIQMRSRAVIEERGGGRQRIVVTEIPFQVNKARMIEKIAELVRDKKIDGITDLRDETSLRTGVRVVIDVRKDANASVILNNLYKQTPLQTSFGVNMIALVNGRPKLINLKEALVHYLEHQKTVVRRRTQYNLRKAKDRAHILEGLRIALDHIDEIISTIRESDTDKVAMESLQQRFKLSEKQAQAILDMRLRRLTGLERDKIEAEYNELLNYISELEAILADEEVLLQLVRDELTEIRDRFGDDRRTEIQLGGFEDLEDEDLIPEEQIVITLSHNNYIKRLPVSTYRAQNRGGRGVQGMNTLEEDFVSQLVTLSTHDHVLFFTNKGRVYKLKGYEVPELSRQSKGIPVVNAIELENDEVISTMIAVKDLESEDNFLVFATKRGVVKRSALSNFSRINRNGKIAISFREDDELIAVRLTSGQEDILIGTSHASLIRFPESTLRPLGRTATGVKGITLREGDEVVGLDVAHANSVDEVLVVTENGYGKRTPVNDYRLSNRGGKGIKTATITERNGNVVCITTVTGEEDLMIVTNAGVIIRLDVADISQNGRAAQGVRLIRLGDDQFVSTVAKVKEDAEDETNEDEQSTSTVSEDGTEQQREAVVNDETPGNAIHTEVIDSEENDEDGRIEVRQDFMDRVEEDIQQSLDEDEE
T1 sequence (P0C1S7 whole entry): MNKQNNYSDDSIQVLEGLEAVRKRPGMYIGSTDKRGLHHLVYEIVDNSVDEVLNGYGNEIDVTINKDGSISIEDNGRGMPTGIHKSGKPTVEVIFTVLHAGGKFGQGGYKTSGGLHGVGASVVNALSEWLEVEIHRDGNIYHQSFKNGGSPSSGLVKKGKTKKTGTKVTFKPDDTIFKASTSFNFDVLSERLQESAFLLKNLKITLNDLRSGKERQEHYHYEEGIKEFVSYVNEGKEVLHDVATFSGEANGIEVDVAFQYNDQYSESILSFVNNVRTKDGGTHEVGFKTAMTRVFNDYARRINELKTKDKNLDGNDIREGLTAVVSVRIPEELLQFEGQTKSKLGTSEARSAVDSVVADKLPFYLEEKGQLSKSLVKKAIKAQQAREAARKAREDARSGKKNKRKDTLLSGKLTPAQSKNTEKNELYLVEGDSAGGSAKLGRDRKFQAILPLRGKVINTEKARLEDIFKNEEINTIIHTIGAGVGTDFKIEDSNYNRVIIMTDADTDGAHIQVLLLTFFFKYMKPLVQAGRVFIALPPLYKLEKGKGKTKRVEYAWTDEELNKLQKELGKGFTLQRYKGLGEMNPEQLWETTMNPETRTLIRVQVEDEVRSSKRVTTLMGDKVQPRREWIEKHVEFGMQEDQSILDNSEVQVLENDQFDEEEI
T1 sequence (P0C1U9 whole entry): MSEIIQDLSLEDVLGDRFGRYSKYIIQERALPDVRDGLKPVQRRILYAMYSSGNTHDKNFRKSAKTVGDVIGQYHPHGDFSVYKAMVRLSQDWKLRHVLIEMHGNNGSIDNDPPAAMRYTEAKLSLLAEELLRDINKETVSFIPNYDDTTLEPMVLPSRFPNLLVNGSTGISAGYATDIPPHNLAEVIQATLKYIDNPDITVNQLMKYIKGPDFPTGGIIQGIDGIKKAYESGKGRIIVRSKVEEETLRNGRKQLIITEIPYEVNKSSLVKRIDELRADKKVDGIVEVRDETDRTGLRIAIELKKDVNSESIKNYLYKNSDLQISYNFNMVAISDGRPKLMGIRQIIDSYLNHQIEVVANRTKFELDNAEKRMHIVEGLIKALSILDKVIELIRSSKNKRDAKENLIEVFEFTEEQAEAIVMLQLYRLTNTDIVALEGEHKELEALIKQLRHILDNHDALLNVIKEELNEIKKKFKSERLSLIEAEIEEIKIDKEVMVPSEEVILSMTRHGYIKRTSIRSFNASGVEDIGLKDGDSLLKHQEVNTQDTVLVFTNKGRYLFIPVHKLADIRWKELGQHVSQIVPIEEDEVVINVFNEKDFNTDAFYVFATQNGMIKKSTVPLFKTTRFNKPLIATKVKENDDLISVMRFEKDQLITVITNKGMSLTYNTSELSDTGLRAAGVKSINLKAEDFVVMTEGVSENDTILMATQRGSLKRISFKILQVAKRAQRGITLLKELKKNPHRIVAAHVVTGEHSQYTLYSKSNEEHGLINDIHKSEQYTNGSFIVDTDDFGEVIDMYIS
T3 sequence (P20083 whole entry): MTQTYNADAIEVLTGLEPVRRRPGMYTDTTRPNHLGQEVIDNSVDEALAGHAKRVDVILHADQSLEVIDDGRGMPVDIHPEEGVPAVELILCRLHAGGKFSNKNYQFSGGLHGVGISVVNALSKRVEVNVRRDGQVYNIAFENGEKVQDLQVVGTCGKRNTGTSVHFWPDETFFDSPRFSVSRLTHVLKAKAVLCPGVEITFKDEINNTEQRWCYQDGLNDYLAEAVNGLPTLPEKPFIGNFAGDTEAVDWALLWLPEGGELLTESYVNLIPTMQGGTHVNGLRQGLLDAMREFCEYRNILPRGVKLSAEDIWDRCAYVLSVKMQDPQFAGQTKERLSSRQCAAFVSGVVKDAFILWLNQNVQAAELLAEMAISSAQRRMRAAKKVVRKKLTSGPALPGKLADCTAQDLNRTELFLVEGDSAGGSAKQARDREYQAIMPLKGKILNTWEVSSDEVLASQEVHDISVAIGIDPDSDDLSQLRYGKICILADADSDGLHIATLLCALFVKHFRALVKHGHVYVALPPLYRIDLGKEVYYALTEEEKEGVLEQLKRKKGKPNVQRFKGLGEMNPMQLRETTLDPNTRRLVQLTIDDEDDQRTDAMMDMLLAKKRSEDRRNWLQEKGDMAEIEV
T3 sequence (P0AFI2 whole entry): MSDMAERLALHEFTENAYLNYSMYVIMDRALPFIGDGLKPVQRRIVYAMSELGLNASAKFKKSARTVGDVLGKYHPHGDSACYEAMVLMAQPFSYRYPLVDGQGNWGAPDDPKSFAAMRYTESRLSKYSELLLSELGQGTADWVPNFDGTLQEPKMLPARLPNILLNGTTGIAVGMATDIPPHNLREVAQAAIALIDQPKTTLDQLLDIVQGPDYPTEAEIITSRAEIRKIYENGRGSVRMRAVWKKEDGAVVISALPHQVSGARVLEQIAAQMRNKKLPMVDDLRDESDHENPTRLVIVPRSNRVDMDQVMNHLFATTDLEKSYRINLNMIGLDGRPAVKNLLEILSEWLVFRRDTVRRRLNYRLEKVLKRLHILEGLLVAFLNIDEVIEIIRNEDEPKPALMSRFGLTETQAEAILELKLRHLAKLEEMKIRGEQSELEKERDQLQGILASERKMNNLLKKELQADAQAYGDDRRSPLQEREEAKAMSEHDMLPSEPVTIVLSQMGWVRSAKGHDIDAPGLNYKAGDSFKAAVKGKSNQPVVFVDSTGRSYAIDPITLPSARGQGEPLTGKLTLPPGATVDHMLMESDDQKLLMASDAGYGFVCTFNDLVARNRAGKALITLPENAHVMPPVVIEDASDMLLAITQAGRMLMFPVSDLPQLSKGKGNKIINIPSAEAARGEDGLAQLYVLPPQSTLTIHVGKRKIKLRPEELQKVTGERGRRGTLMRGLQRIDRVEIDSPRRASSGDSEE

For the compound `O=c1cc(NCCCN2CCN(c3nccc4ccc(F)cc34)CC2)c2ccccc2o1` [Compound 67, 4-({3-[4-(7-fluoroisoquinolin-1-yl)piperazin-1-yl]propyl}amino)chromen-2-one], the IC50 in assay [1] came out at 11800 nM; at E. coli DNA gyrase, 800 nM; at E. coli Topoisomerase IV it was 1700 nM; against S. aureus DNA gyrase, 2800 nM. The inhibition at 100 µM in assay [1] (S. aureus, conc. 100 μM, n/a = not active, read-out: % inhibition Topo IV) was 100%; against E. coli DNA gyrase (E. coli, conc. 100 μM, n/a = not active), 89%; on E. coli Topoisomerase IV (E. coli, conc. 100 μM, n/a = not active, read-out: % inhibition Topo IV) it was 100%; against S. aureus DNA gyrase (S. aureus, conc. 100 μM, n/a = not active), 97%.

As to `O=c1cc(NCCNC2CCN(c3nccc4ccc(F)cc34)CC2)c2cc(F)ccc2o1` [Compound 131, 6-fluoro-4-[(2-{[1-(7-fluoroisoquinolin-1-yl)piperidin-4-yl]amino}ethyl)amino]-2H-chromen-2-one], the inhibition at 50 µM in assay [1] (setting [2]) amounted to 78%; on E. coli DNA gyrase (E. coli, n/a = not active), 100%; at E. coli Topoisomerase IV (setting [3]), 100%; on S. aureus DNA gyrase (S. aureus, n/a = not active) it was 81%.

With `O=c1nc(NCC(O)CN2CCN(c3nccc4ccc(F)cc34)CC2)c2cc(F)ccc2o1` (stereo not drawn) [Compound 148, 6-fluoro-4-({3-[4-(7-fluoroisoquinolin-1-yl)piperazin-1-yl]-2-hydroxypropyl}amino)-2H-1,3-benzoxazin-2-one], the inhibition at 50 µM in assay [1] (setting [2]) amounted to 100%; at E. coli DNA gyrase (E. coli, n/a = not active), 96%; on E. coli Topoisomerase IV (setting [3]), 100%; against S. aureus DNA gyrase (S. aureus, n/a = not active) it was 100%. Moreover, the 50% inhibitory concentration (IC50) in assay [1] (setting [4]) was 50 nM; against E. coli DNA gyrase it was 420 nM; at E. coli Topoisomerase IV it was 120 nM; at S. aureus DNA gyrase, 24 nM.

Regarding `O=c1nc(NCC(O)CN2CCN(c3nc(F)cc4ccc(F)cc34)CC2)c2cc(F)ccc2o1` (stereo not drawn) [Compound 149, 4-({3-[4-(3,7-difluoroisoquinolin-1-yl)piperazin-1-yl]-2-hydroxypropyl}amino)-6-fluoro-2H-1,3-benzoxazin-2-one], the inhibition at 50 µM turned out to be 100% in assay [1] (setting [2]); 90% against E. coli DNA gyrase (E. coli, n/a = not active); 90% on E. coli Topoisomerase IV (setting [3]); 100% at S. aureus DNA gyrase (S. aureus, n/a = not active). The IC50 came out at 40 nM in assay [1] (setting [4]), 100 nM against E. coli DNA gyrase, 140 nM at E. coli Topoisomerase IV and 18 nM on S. aureus DNA gyrase.

Take `Fc1ccc2ccnc(N3CCN(CCNCc4cc5c(cn4)OCCC5)CC3)c2c1` [Compound 150, N-[(3,4-dihydro-2H-pyrano[2,3-c]pyridin-6-yl)methyl]-2-[4-(7-fluoroisoquinolin-1-yl)piperazin-1-yl]ethan-1-amine]: the IC50 in assay [1] was 5890 nM; against E. coli DNA gyrase, 17100 nM; against E. coli Topoisomerase IV, 4240 nM; on S. aureus DNA gyrase it was 1020 nM. In addition, the inhibition at 50 µM in assay [1] (setting [2]) was 50%; at E. coli DNA gyrase (E. coli, n/a = not active), 50%; on E. coli Topoisomerase IV (setting [3]), 50%; at S. aureus DNA gyrase (S. aureus, n/a = not active) it was 100%.

Regarding `O=c1oc2ccccc2c2[nH]c(C(O)CN3CCN(c4nccc5ccc(F)cc45)CC3)nc12` (stereo not drawn) [Compound 152, 2-{2-[4-(7-fluoroisoquinolin-1-yl)piperazin-1-yl]-1-hydroxyethyl}[1]benzopyrano[3,4-d]imidazol-4(1H)-one hydrochloride], the 50% inhibitory concentration (IC50) in assay [1] (setting [4]) stood at 530 nM; against E. coli DNA gyrase, 660 nM; at E. coli Topoisomerase IV, 850 nM; on S. aureus DNA gyrase, 310 nM. In addition, the inhibition at 50 µM stood at 88% in assay [1] (read-out: % inhibition Topo IV); 88% on E. coli DNA gyrase (E. coli, n/a = not active); 100% at E. coli Topoisomerase IV (setting [3]); 100% at S. aureus DNA gyrase (S. aureus, n/a = not active).

Take `O=c1oc2ccccc2c2[nH]c(CNC3CCN(c4nccc5ccc(F)cc45)CC3)c(C(F)(F)F)c12` [Compound 153, 2-({[1-(7-fluoroisoquinolin-1-yl)piperidin-4-yl]amino}methyl)-3-(trifluoromethyl)[1]benzopyrano[4,3-b]pyrrol-4(1H)-one]: the concentration for half-maximal inhibition (IC50) came out at 2300 nM in assay [1], 1420 nM at E. coli DNA gyrase, 1340 nM at E. coli Topoisomerase IV and 490 nM against S. aureus DNA gyrase. Moreover, the inhibition at 50 µM in assay [1] (setting [2]) came out at 61%; against E. coli DNA gyrase (E. coli, n/a = not active) it was 72%; at E. coli Topoisomerase IV (setting [3]), 50%; on S. aureus DNA gyrase (S. aureus, n/a = not active), 100%.

Turning to `O=c1nc(NCC(O)CN2CCN(c3nc(F)cc4ccc(OC(F)(F)F)cc34)CC2)c2cc(F)ccc2o1` (stereo not drawn) [Compound 155, 6-fluoro-4-[(3-{4-[3-fluoro-7-(trifluoromethoxy)isoquinolin-1-yl]piperazin-1-yl}-2-hydroxypropyl)amino]-2H-1,3-benzoxazin-2-one], the inhibition at 50 µM was determined as 50% in assay [1] (setting [2]); 60% on E. coli DNA gyrase (E. coli, n/a = not active); 0% at E. coli Topoisomerase IV (setting [3]); 50% on S. aureus DNA gyrase (S. aureus, n/a = not active). Moreover, the figures for the IC50 (in assay [1] (setting [4]); at E. coli DNA gyrase; against S. aureus DNA gyrase) were 7210 nM, 6310 nM and 8740 nM, respectively.

Turning to `O=c1nc(NCC(O)CN2CCN(c3nccc4nccnc34)CC2)c2cc(F)ccc2o1` (stereo not drawn) [Compound 156, 6-fluoro-4-((2-hydroxy-3-(4-(pyrido[3,4-b]pyrazin-5-yl)piperazin-1-yl)propyl)amino)-2H-benzo[e][1,3]oxazin-2-one], the inhibition at 50 µM in assay [1] (setting [2]) turned out to be 86%; against E. coli DNA gyrase (E. coli, n/a = not active), 78%; on E. coli Topoisomerase IV (setting [3]), 91%; on S. aureus DNA gyrase (S. aureus, n/a = not active), 89%. Besides, the IC50 in assay [1] (setting [4]) was 1250 nM; at E. coli DNA gyrase, 2740 nM; against E. coli Topoisomerase IV it was 640 nM; against S. aureus DNA gyrase, 1760 nM.

As to `NC(CN1CCN(c2nccc3ccc(F)cc23)CC1)c1nc2c(=O)oc3ccccc3c2[nH]1` (stereo not drawn) [Compound 158, 2-{1-amino-2-[4-(7-fluoroisoquinolin-1-yl)piperazin-1-yl]ethyl}[1]benzopyrano[3,4-d]imidazol-4(1H)-one hydrochloride], the IC50 in assay [1] (setting [4]) turned out to be 2130 nM; on E. coli DNA gyrase, 1860 nM; at E. coli Topoisomerase IV, 920 nM; against S. aureus DNA gyrase, 860 nM. The inhibition at 50 µM was found to be 100% in assay [1] (read-out: % inhibition Topo IV); 95% against E. coli DNA gyrase (E. coli, n/a = not active); 97% on E. coli Topoisomerase IV (setting [3]); 100% on S. aureus DNA gyrase (S. aureus, n/a = not active).

The record behind these values is patent US10221144B2, “Antibacterial compounds having broad spectrum of activity” (priority 2014, dated 2019).
